A short description of data set [1]: Antiviral activity against Influenza A virus (A/HK/7/87(H3N2)) infected in MDCK cells assessed as 2-log10 reduction in virus yield after 24 hrs by RT-qPCR analysis. In kind it is functional, Influenza A virus (A/Hong Kong/7/1987(H3N2)). (In general: Quantitative PCR measures a nucleic acid by following its amplification.)
A further data set relates to Influenza B virus. In words: Antiviral activity against Influenza B virus (B/HK/5/72) infected in MDCK cells assessed as reduction of virus-induced cytopathic effect after 72 hrs by microscopic analysis. In kind it is functional, cell-based. To be noted: B/Hong Kong/05/1972.
The nature of data set [2]: Antiviral activity against Influenza A virus (A/HK/7/87(H3N2)) infected in MDCK cells assessed as cell viability after 72 hrs by MTS assay. In kind it is functional, cell-based, Influenza A virus (A/Hong Kong/7/1987(H3N2)). On the technique in general: Tetrazolium assays rely on reduction of a dye to a coloured formazan, in cell work by metabolically active cells.
Data set [3] is described as follows: Antiviral activity against Influenza A virus (A/HK/7/87(H3N2)) infected in MDCK cells assessed as virus plaque reduction preincubated for 1 hr followed by compound wash out and incubated for 72 hrs by crystal violet staining. In kind it is functional, cell-based, Influenza A virus (A/Hong Kong/7/1987(H3N2)).
Data set [4] is described as follows: Cytotoxicity against MDCK cells assessed as cell viability after 72 hrs by MTS assay. In kind it is cell-based, Canis lupus familiaris. Conditions: dog.
Data set [5] is described as follows: Antiviral activity against Influenza A virus (A/HK/7/87(H3N2)) infected in MDCK cells assessed as reduction of virus-induced cytopathic effect after 72 hrs by microscopic analysis. The data set is classed as functional, cell-based, Influenza A virus (A/Hong Kong/7/1987(H3N2)). (In general: Protection from cytopathic effect is a common read-out in antiviral testing.)

Data set [6] addresses Matrix protein 2 (Influenza A virus) (UniProt P06821). In kind it is cell membranes. Conditions: Influenza A virus (A/udorn/1972(H3N2)); 100 uM.
A short description of data set [7]: Cytotoxicity against MDCK cells assessed as alternations in cell morphology after 72 hrs. In kind it is cell-based, Canis lupus familiaris. To be noted: dog.
In data set [8] the test system is Influenza A virus. As to the kind of experiment: Antiviral activity against Influenza A virus (A/PR/8/34(H1N1)) infected in MDCK cells assessed as reduction of virus-induced cytopathic effect after 72 hrs by microscopic analysis. Conditions: A/Puerto Rico/8/1934(H1N1). In kind it is functional, organism-based.
Data set [9] relates to Influenza A virus. As to the kind of experiment: Antiviral activity against Influenza A virus (A/PR/8/34(H1N1)) infected in MDCK cells assessed as cell viability after 72 hrs by MTS assay. The data set is classed as functional, organism-based. Conditions: A/Puerto Rico/8/1934(H1N1).
Another data set deals with Matrix protein 2 (Influenza A virus, UniProt P06821). The data set is classed as cell membranes, Influenza A virus (A/udorn/1972(H3N2)).

pEC50, pIC50: −log10 of the molar value. Active and inactive are the calls of the source. No cut-off for these calls is given here. A value given as a limit tells only on which side of the number the result lay.

Chain of Matrix protein 2 (Influenza A virus) (P06821 whole entry): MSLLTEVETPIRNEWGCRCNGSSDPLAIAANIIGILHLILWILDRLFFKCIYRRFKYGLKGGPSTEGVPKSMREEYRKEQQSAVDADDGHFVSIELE
Chain of Matrix protein 2 (P06821 whole entry): as above

The term EC99 denotes the concentration at which the effect reaches the 99% level. Usually pEC50 stands for the EC50 on a negative log10 scale, so that one unit is a factor of ten. A word on the CC50: it is the concentration giving 50% cytotoxicity. As usually defined, the inhibition is the relative decrease from the control value, in per cent. Broadly, the pIC50 is the negative decadic logarithm of the IC50, by convention in mol/L. As for `C1C2[C@@H]3[C@H]2[C@@H]2C1[C@H]3[C@@H]1CNC[C@@H]12`, in data set [1], the EC99 is 28 µM. In addition, the result in the data set with Influenza B virus was inactive. Moreover, the pEC50 in [2] is less than 4.00; in data set [3], 5.17; in [5], less than 4.00; with Influenza A virus [8], less than 4.00; in the data set with Influenza A virus [9] it was less than 4.00. The half-maximal cytotoxic concentration (CC50) at 72 h in [4] was more than 100 µM. Further, the inhibition in data set [6] is 93.7%. In addition, the MCC at 72 h in data set [7] was more than 100 µM. Further, the pIC50 against Matrix protein 2 was 5.48.

Turning to `C1=C[C@H]2[C@H]3[C@H]4[C@@H]1[C@@H]1[C@H]2[C@@H]2[C@H]3[C@@H]3CNC[C@@H]3[C@H]4[C@H]12`, in [1], the EC99 came to 3.45 µM. Further, the outcome with Influenza B virus was inactive. The pEC50 in data set [2] was less than 4.00; in data set [3], 6.43; in data set [5] it was less than 4.00; with Influenza A virus [8] it was less than 4.00; with Influenza A virus [9] it was less than 4.00. For the same compound, the CC50 at 72 h in [4] is 11 µM. Further, in data set [6], the inhibition was 96.4%. Further, the MCC at 72 h in [7] came to 20 µM. The compound also showed a pIC50 on Matrix protein 2 of 5.59.

Regarding `Brc1ccc(CNC23CC4CC(CC(C4)C2)C3)s1`, the inhibition in data set [6] came out at 77%.

Turning to `N=C(N)N1C[C@@H]2[C@H](C1)[C@@H]1[C@@H]3[C@H]4CC[C@H]5[C@@H]3[C@H]2[C@H]2[C@@H]5[C@@H]4[C@@H]12`, the EC99 in [1] was more than 2 µM. The outcome with Influenza B virus was inactive. The pEC50 in data set [2] was less than 4.00; in data set [3], less than 5.30; in [5] it was less than 4.00; in the data set on Influenza A virus [8], less than 4.00; in the data set on Influenza A virus [9], less than 4.00. In addition, the CC50 at 72 h in [4] came to 4.6 µM. In [6], this compound had an inhibition of 90.6%. The MCC at 72 h in [7] is 7 µM. This compound had a pIC50 against Matrix protein 2 of 5.43.

Take `N=C(N)N1C[C@@H]2[C@H](C1)[C@H]1C3CC4[C@H]([C@H]41)[C@@H]32`: the EC99 in [1] is more than 50 µM. Also, in the data set on Influenza B virus, the outcome was inactive. Also, the pEC50 (in data set [2]; in data set [3]; in data set [5]; in the data set with Influenza A virus [8]; with Influenza A virus [9]) was less than 4.00 in each case. In addition, the cytotoxic concentration (CC50) at 72 h in data set [4] came out at 50 µM. In addition, the inhibition in data set [6] was 99%. In addition, the MCC at 72 h in data set [7] was more than 100 µM. Besides, the pIC50 against Matrix protein 2 is 6.10.

Regarding `C1C[C@H]2[C@H]3[C@H]4[C@@H]1[C@@H]1[C@H]2[C@@H]2[C@H]3[C@@H]3CNC[C@@H]3[C@H]4[C@H]12`, in data set [1], the EC99 was more than 2 µM. In addition, in the data set with Influenza B virus, the outcome was inactive. In addition, the pEC50 is less than 4.00 in [2]; 6.27 in data set [3]; less than 4.00 in data set [5]; less than 4.00 with Influenza A virus [8]; less than 4.00 in the data set on Influenza A virus [9]. The half-maximal cytotoxic concentration (CC50) at 72 h in data set [4] was 3.7 µM. In [6], this compound displayed an inhibition of 98.1%. In addition, in data set [7], the MCC at 72 h is 4 µM. The pIC50 on Matrix protein 2 was 5.68.

As to `CC(N)C12CC3CC(CC(C3)C1)C2` (stereo not given) [RIMANTADINE], in data set [1], the EC99 turned out to be 1.77 µM. Besides, the pEC50 in data set [2] is 6.82; in data set [3] it was 7.70; in data set [5] it was 6.09; in the data set on Influenza A virus [8], 5.12; with Influenza A virus [9] it was 5.29.

In [6], `N=C(N)N1CC2C3CCC(C4CCC43)C2C1` (stereo not given) displayed an inhibition of 94.5%.

For the compound `N=C(N)N1C[C@@H]2[C@H](C1)[C@@H]1[C@@H]3[C@H]4C=C[C@H]5[C@@H]3[C@H]2[C@H]2[C@@H]5[C@@H]4[C@@H]12`, the concentration for an effect of 99% (EC99) in [1] is more than 2 µM. In the data set with Influenza B virus, the outcome was inactive. Further, the pEC50 in [2] is less than 4.00; in data set [3] it was less than 5.30; in data set [5], less than 4.00; in the data set with Influenza A virus [8], less than 4.00; in the data set on Influenza A virus [9], less than 4.00. In addition, the CC50 at 72 h in data set [4] was 1.2 µM. Moreover, the inhibition in data set [6] was 89.6%. In addition, the MCC at 72 h in [7] came to 2 µM. Further, the pIC50 against Matrix protein 2 was 5.19.

For `NC12CC3CC(CC(C3)C1)C2` [AMANTADINE], the EC99 in data set [1] was 0.72 µM. Further, the pEC50 in data set [2] is 5.85; in data set [3], 6.85; in [5], 5.85; in the data set with Influenza A virus [8] it was 4.52; in the data set on Influenza A virus [9] it was 4.47.

The record behind these values is ChEMBL document CHEMBL3414500, “New polycyclic dual inhibitors of the wild type and the V27A mutant M2 channel of the influenza A virus with unexpected binding mode” (Eur J Med Chem, 2015).
